# PubChem BioAssay AID652285 (Sanford-Burnham Center for Chemical Genomics, 2013)
# Where “and” joins values, the source holds several entries; their conditions need not be identical. Equal entries are not always repeated. Calls of active or inactive are those of the source.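 The calls were made as follows: active = IC50 at or below 60 µM; inactive = the rest.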
# Biological target: COP9 signalosome complex subunit 5 (Homo sapiens) (UniProt Q92905)
# Experiment: inhibitors of Csn5 cullin deneddylation – biochemical, fluorescence polarization, Cul-Nedd8-OG substrate, selectivity assay for RPN11 inhibitor project, SAR follow-up (AID 652285)
# Conditions: Csn5 deneddylation of SCF-Nedd8-OG
# COP9 signalosome complex subunit 5 (Homo sapiens), sequence (Q92905 whole entry, looked up, one chain of several): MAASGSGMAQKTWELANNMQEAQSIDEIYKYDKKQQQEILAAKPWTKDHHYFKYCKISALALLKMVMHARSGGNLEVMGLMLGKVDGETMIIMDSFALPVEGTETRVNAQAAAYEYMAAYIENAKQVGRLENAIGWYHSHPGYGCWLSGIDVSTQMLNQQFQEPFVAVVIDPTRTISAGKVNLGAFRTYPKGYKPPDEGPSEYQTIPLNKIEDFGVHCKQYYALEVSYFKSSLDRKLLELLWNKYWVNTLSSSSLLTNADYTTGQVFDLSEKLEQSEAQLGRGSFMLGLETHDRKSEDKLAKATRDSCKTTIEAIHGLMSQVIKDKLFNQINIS
row,Compound,IC50
1,O=C(Sc1cccc2cccnc12)c1cccc(C(F)(F)F)c1,> 95 µM (inactive)
2,O=C(Sc1cccc2cccnc12)c1ccccc1OC(F)(F)F,9.48 µM
3,COc1ccc(C(=O)Sc2cccc3cccnc23)cc1OC,8.81 µM
4,O=C(Sc1cccc2cccnc12)c1ccccc1I,11.2 µM
5,O=C(Sc1cccc2cccnc12)c1ccc(F)cc1,4.3 µM
6,O=C(Sc1cccc2cccnc12)c1ccc(C(F)(F)F)cc1,6.26 µM
7,O=C(Sc1cccc2cccnc12)c1ccc([N+](=O)[O-])cc1,20.2 µM
8,N#Cc1ccc(C(=O)Sc2cccc3cccnc23)cc1,> 95 µM (inactive)
9,COc1ccc(C(=O)Sc2cccc3cccnc23)cc1,9.61 µM
10,O=C(Sc1cccc2cccnc12)c1ccccc1F,> 95 µM (inactive)
11,COC(=O)[C@H](C)NC(=O)c1cnc2c(SSc3cccc4cc(C(=O)N[C@@H](C)C(=O)OC)cnc34)cccc2c1,15.4 µM
12,COC(=O)[C@H](C)NC(=O)c1ccnc2c(SSc3cccc4c(C(=O)N[C@@H](C)C(=O)OC)ccnc34)cccc12,16.8 µM
13,O=C(Sc1cccc2cccnc12)c1cccc(Cl)c1,1.91 µM
14,O=C(Sc1cccc2cccnc12)c1ccccc1[N+](=O)[O-],8.24 µM
15,O=C(Sc1cccc2cccnc12)c1ccc(F)c(F)c1,5.36 µM

# Continued, values first:
row,IC50,Compound
1,7.62 µM,COC(=O)[C@@H](NC(=O)c1cnc2c(SSc3cccc4cc(C(=O)N[C@H](C(=O)OC)C(C)C)cnc34)cccc2c1)C(C)C
2,> 95 µM (inactive),Cc1ccc(C(=O)Sc2cccc3cccnc23)cc1
3,14.1 µM,O=C(Sc1cccc2cccnc12)c1ccccc1Cl
4,14.2 µM and 8.37 µM,COc1ccccc1C(=O)Sc1cccc2cccnc12
5,8.9 µM,O=C(Sc1cccc2cccnc12)c1cccc2ccccc12
6,4.77 µM,O=C(Sc1cccc2cccnc12)c1ccccc1
7,10.7 µM,CCCc1ccc(C(=O)Sc2cccc3cccnc23)cc1
8,20.8 µM,Cc1ccccc1C(=O)Sc1cccc2cccnc12
9,9.27 µM and 34.4 µM,CCOc1ccccc1C(=O)Sc1cccc2cccnc12
10,inactive,N#Cc1cccc(C(=O)Sc2cccc3cccnc23)c1
11,inactive,O=C(Sc1cccc2cccnc12)c1ccc(F)cc1F
12,5.4 µM,O=C(O)[C@@H]1CCCN1C(=O)c1cnc2c(SSc3cccc4cc(C(=O)N5CCC[C@H]5C(=O)O)cnc34)cccc2c1
13,16.6 µM,C[C@@H](C(=O)O)N(C)C(=O)c1cnc2c(SSc3cccc4cc(C(=O)N(C)[C@@H](C)C(=O)O)cnc34)cccc2c1
14,34.7 µM,CC(C)(C)OC(=O)CCNC(=O)c1cnc2c(SSc3cccc4cc(C(=O)NCCC(=O)OC(C)(C)C)cnc34)cccc2c1
15,9.33 µM,CC(C)C[C@H](NC(=O)c1cnc2c(SSc3cccc4cc(C(=O)N[C@@H](CC(C)C)C(=O)O)cnc34)cccc2c1)C(=O)O
16,42.7 µM,COC(=O)[C@H](CO)NC(=O)c1cnc2c(SSc3cccc4cc(C(=O)N[C@@H](CO)C(=O)OC)cnc34)cccc2c1
17,3.95 µM,O=C(Sc1cccc2cccnc12)c1c(Cl)cccc1Cl
18,8.63 µM,COC(=O)[C@H](C)N(C)C(=O)c1cnc2c(SSc3cccc4cc(C(=O)N(C)[C@@H](C)C(=O)OC)cnc34)cccc2c1
19,12.7 µM,COC(=O)[C@H](CC(C)C)NC(=O)c1cnc2c(SSc3cccc4cc(C(=O)N[C@@H](CC(C)C)C(=O)OC)cnc34)cccc2c1
20,18.3 µM,O=C(Sc1cccc2cccnc12)c1ccc2c(c1)OCO2
21,5.76 µM,CC[C@@H](C)[C@H](NC(=O)c1cnc2c(SSc3cccc4cc(C(=O)N[C@H](C(=O)O)[C@H](C)CC)cnc34)cccc2c1)C(=O)O
22,5.44 µM,O=C(Sc1cccc2cccnc12)c1ccccc1Br
23,6.5 µM,COc1ccc(C(=O)Sc2cccc3cccnc23)cc1F
